# Measurements as given in patent US9545416B2 (Universite de Montreal, priority 2011, dated 2017).
# Entries after “also recorded” stand apart in the source; their conditions may differ. Read-outs that look alike come from different tables or passages of the source.
# Legend:
# [1] = system: F100R cells; assay: Cell growth assay, type 1 resistant F100R cells; format: cell-based; details: GDC-0449, type 1 resistant F100R cells
# [2] = target: T1, eIF4E (Homo sapiens, UniProt P06730); assay: Immunoprecipitation of labelled (3H/14C) ribavirin with eIF4E in living cells; format: binding
# T1 construct: endogenous in cells; host or cells: parental FaDu, F10R and F100R resistant cells
# Method: In total, it appears that these AML specimens have developed an “oncogene addiction” to eIF4E making them more sensitive to inhibition of eIF4E than specimens with normal eIF4E levels.
# It was determined whether ^14C-ribavirin could immunoprecipitate with eIF4E in the F10R and F100R resistant cell lines.
# Cells were treated for 24 hours with ^14C-ribavirin followed by cross-linking and immunoprecipitation and evaluated relative to IgG controls.
# [3] = system: Parental FaDu cells; assay: Cell number / growth assay, parental FaDu cells; format: cell-based
# Method: (§1) (FIG. 6). Gli-1 knockdown experiments were performed in parallel.
# [4] = reported according to Roche; cited from earlier work
# [5] = system: F10R cells; assay: Cell number / growth assay, F10R resistant cells; format: cell-based
# Method: as §1
# [6] = target: T2, eIF4E gene product (Homo sapiens, UniProt P06730); assay: Molecular analysis of eIF4E gene product activity in trial patients; format: in vivo; details: after 28 days of oral ribavirin, monotherapy trial
# T2 construct: from tissue; host or cells: leukemia specimens of AML patients in the clinical trials
# Text: In terms of clinical response, 1 CR (complete remission), 2 PR (partial remission), 3 BR (blast response), 6 SD (stable disease), 3PD (progressive disease) were observed out of 15 evaluable patients. […] A biphasic molecular response was observed, where initially the eIF4E gene product was dramatically re-distributed to the cytoplasm in patients that responded. This was followed by a drop in eIF4E RNA and protein levels (up to one 28 day cycle).
# [7] = system: Gli-1 overexpressing cells; assay: Cell number assay, Gli-1 overexpressing FaDu cells; format: cell-based; details: 20 μM ribavirin
# Method: as §1
# [8] = system: cyclin D1 and VEGF; assay: Protein levels of eIF4E export and translation targets as a function of ribavirin treatment; format: cell-based
# [9] = system: FaDu and THP1 cells and resistant F10R, F100R, T10R, T20R cell lines; details: previous studies; cited from earlier work
# [10] = system: Gli-1 mRNA; assay: Gli-1 mRNA levels in patient specimens (qRT-PCR); format: in vivo, human; details: two patients that did not respond (PD)
# Text: For responding patients, in all cases Gli-1 mRNA levels were higher at resistance than during response.
# The molecular features identified in present studies were examined to determine whether they were relevant to specimens from patients that received ribavirin monotherapy in the multi-centre phase II AML trial. For responding patients, all available specimens before treatment were monitored, during clinical response, upon the onset of relapse and in non-responders when possible. A total of ten specimens were examined including those from patients that enrolled in the monotherapy trial. Results from the trial, when closed, were 1 CR, 2 PR, 3 BR, 6 SD, 3 PD with 15 evaluable patients (Clinicaltrials.gov). Of these, samples from 10 patients were available for evaluation of molecular response. […] Gli-1 mRNA levels were monitored using qRT-PCR. […] (See above table).
# [11] = system: MDR1; assay: MDR1 levels in patients; format: in vivo, human; details: Patient 10 (BR), four cycles
# [12] = system: ENT1, ADK or Gli-1 levels; assay: Deep sequencing of 10R cells during ribavirin treatment; format: cell-based
# Text: All deep sequencing in resistant cells is done in the absence of ribavirin.
# [13] = system: relapsed/refractory M4/M5 AML
# Text: The molecular features identified in present studies were examined to determine whether they were relevant to specimens from patients that received ribavirin monotherapy in the multi-centre phase II AML trial. For responding patients, all available specimens before treatment were monitored, during clinical response, upon the onset of relapse and in non-responders when possible. A total of ten specimens were examined including those from patients that enrolled in the monotherapy trial. […] Of these, samples from 10 patients were available for evaluation of molecular response. […] Gli-1 mRNA levels were monitored using qRT-PCR.
# [14] = system: FaDu and THP1 cells and resistant F10R, F100R, T10R, T20R cell lines; assay: Uptake of 3H-ribavirin in parental and resistant cell lines; format: cell-based; details: 0 to 16 hours
# [15] = system: ENT1; assay: ENT1 RNA levels in patients (RT-qPCR); format: in vivo, human; details: Patient 10 (BR), four cycles
# Text: Results from RT-qPCR are normalised against multiple genes to ensure no changes in the normalised occurred as described.
# T2 sequence (P06730 whole entry): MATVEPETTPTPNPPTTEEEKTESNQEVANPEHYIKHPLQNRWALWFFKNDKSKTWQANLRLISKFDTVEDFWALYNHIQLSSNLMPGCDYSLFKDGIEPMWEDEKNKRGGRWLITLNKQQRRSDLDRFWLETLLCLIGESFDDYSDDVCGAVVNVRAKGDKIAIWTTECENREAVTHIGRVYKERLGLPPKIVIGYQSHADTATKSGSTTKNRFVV
structure (smiles),measurement,setting,value
CS(=O)(=O)c1ccc(C(=O)Nc2ccc(Cl)c(-c3ccccn3)c2)c(Cl)c1 [GDC-0449],growth,[1],no effect
same,ribavirin binding to eIF4E after GDC-0449 treatment,[2]; F10R cells,increase in ribavirin binding to eIF4E
same,reduction in growth,[3]; 3 nM GDC-0449 alone,25%
same,plasma levels,[4],3 nM
same,growth,"[5]; 3 nM GDC-0449 alone, F10R cells",did not affect
"NC(=O)c1ncn([C@@H]2O[C@H](CO)[C@@H](O)[C@H]2O)n1 [ribavirin, 1-[(2R,3R,4S,5R)-3,4-dihydroxy-5-(hydroxymethyl)oxolan-2-yl]-1H-1,2,4-triazole-3-carboxamide]",mRNA export activity of the eIF4E gene product,[6],substantially reduced
same,cell number as % of the untreated Gli-1 overexpressing cells,[7],95%
same,protein levels of cyclin D1 and VEGF,[8]; parental cell lines,reduces levels of these proteins
same,protein levels of cyclin D1 and VEGF,[8]; resistant cell lines,no longer affects these
same,time of maximal uptake after ribavirin treatment,[9],8 to 10 h
same,Gli-1 levels after 28 days of ribavirin,[10],not lowered
same,increase in MDR1 at relapse,[11],17 fold
same,immunoprecipitation of 14C ribavirin with eIF4E,[2]; F10R cell line,does not immunoprecipitate with eIF4E; also recorded: did not immunoprecipitate
same,immunoprecipitation of 14C ribavirin with eIF4E,[2]; F100R cell line,does not immunoprecipitate with eIF4E
same,change of plasma ribavirin levels,CR patient of combination trial after Ara-C lowered to 10 mg/day,near doubling
same,ribavirin plasma levels,combination trial with subcutaneous low dose Ara-C,4 to 10 µM
same,ribavirin plasma levels,"monotherapy trial, 2000 mg/day",20 to 30 µM
same,ribavirin plasma levels,"monotherapy trial, 2800 mg/day",20 µM
same,"ENT1, ADK or Gli-1 levels on addition of ribavirin",[12],did not alter
same,number of patients with BR (blast response),[13]; out of 15 evaluable patients,3
same,number of patients with CR (complete remission),[13]; out of 15 evaluable patients,1
same,number of patients with PD (progressive disease),[13]; out of 15 evaluable patients,3
same,number of patients with PR (partial remission),[13]; out of 15 evaluable patients,2
same,number of patients with SD (stable disease),[13]; out of 15 evaluable patients,6
same,drop in blasts,"[13]; patient 18 (SD), during response",20%
same,decrease in cell number,[3]; 10 μM ribavirin for 96 hours,about 50%
same,reduction of cell number,[3]; 20 μM ribavirin,50%
same,cell numbers as % of the same cells without ribavirin,"[5]; 20 μM ribavirin, RNAi knockdown of Gli-1 in F10R cells",about 50%
same,growth,"[5]; 20 μM ribavirin, siRNA luciferase treated F10R cells",unaffected
same,3H-ribavirin uptake,[14]; F10R cells,indistinguishable from parental FaDu cells
same,3H-ribavirin uptake,"[14]; F100R, T10R and T20R cell lines",severe defects in ribavirin uptake
same,reduction in ENT1 levels at relapse,[15],3 fold
